d = 2'-deoxy (DNA); r = 2'-OH (RNA)
Tests used:
MG63 cells = test: Flow cytometry uptake kinetics and ODN2006 blocking in MG63 cells; format: cell-based, human
Procedure: To determine cpRNA cellular uptake kinetics, FACS experiments were repeated as mentioned above using MG63 cells, where Cy3-cpRNA was treated for different time points. Briefly, Cy3-cpRNA (50 nM) was added to cells, followed by incubation for 0.5 h, 1 h, 1.5 h, 2 h, 3 h and 4 h respectively. The cells were subsequently trypsinised and analyzed by FACS as mentioned above.
To perform […] blocking studies, seeded MG63 cells were incubated with 600 nM 3′-FITC labeled ODN2006 for 1 h, followed by addition of 50 nM cpRNA. Cells were incubated for additional 0.5 h, 1 h, 1.5 h, 2 h, 3 h and 4 h respectively, trypsinised and analyzed by FACS analysis as mentioned above.
To verify if the uptake mechanism of cpRNA was analogous to viral RNA and the RNA mimic polyriboinosinic:polyribocytidylic acid or poly(I:C), blocking studies were performed using the Btype single-stranded DNA sequence ODN2006 which share a common uptake receptor. This synthetic phosphorothioate modified oligo, though initially identified as a TLR9 agonist, blocks cellular uptake of viral RNA and poly(I:C) by preferentially competing with the common RNA uptake receptor. Blocking experiment were performed by pre-incubating the cells with FITC labeled ODN2006 for 1 h, followed by the addition of Cy3-labeled cpRNA. The blocking studies and cellular uptake was monitored using FACS analysis at different time points for up to 4 h. As a control experiment, the uptake kinetics was performed in the absence of FITC labeled ODN2006. […] These experiments verified the involvement of an alternate uptake mechanism and indicated the presence of a ubiquitous RNA capture receptor that required ˜1 h of maturation time before the endocytosis process could initiate.

CTNNB1 (β-catenin) = test: CTNNB1 knockdown time course in MG63 cells by qRT-PCR; format: cell-based, human; conditions: MG63, 50 nM, 24, 48 and 72 h; β-catenin cpRNA without transfection reagent vs canonical siRNA with transfection reagent
Procedure: At 70% confluency, a day prior to transfection, the cells were seeded at a density of 35 000 cells in a 24-well cell culture plate to achieve 60-80% confluence at the day of transfection. Cell penetrating siRNAs (cpRNAs) of different lengths were transfected at 50 nM concentrations with Magnet Assisted Transfection (MATra-si) reagent for siRNAs (IBA GmbH, Göttingen, Germany) according to the manufacturers' protocols. Briefly, the siRNA was mixed with MATra-si reagent composed of supermagnetic ironoxide nanoparticles and incubated for 20 min. A complex was formed which was added to the cells to be transfected. A strong magnetic force was applied beneath the cells for 15 min. This forced the complex to be drawn into the cells by the magnetic field, and as a result the siRNA was delivered directly into the cytosol. […]
cDNA synthesis was performed in triplicate using total RNA reverse transcribed using High Capacity cDNA reverse transcription kit (Applied Biosystems, USA), with non-template control added to ensure a lack of signal in assay background. […] Data from samples with a Ct value equal to or below 35 were further analyzed. Samples were normalized relative to endogenous control and differences in cycle number thresholds were calculated using comparative quantitation 2^−ΔΔcT method (also called the ΔΔCT method), commonly used for analyzing siRNA induced gene knockdown efficiency. […]

With “dT5: GAPDH siRNA, sense SEQ ID NO: 3 with dT5 3′-overhang, antisense SEQ ID NO: 2 with dT2 (sense CCGAGCCACAUCGCUCAGATTTTT; antisense UCUGAGCGAUGUGGCUCGGTT; sense: sugars from the 5' end r19 d5, backbone not given here; antisense: sugars from the 5' end r19 d2, backbone not given here)” the “effect of ODN2006 on cellular uptake” value (MG63 cells; MG63 cells pre-incubated 1 h with 600 nM FITC labeled ODN2006) was “did not inhibit uptake”, the “time after which cellular uptake was initiated” value (MG63 cells; MG63 cells, 50 nM, 37° C.) was about 1 h and the “time in which uptake finished after initiation” value (MG63 cells; MG63 cells, 50 nM, 37° C.) was 2 h. For the same substance, the “CTNNB1 mRNA knockdown efficiency over time” value (CTNNB1 (β-catenin)) was “higher gene knockdown efficiency for over 72 hrs”.

Reference: US20180265867A1, “NUCLEIC ACID MOLECULES WITH ENHANCED ACTIVITY” (priority 2015, published 2018)
